Measurements taken from US6830761B1, “Composition comprising micro-encapsulated iron” (Ped-Med Ltd., priority 1998, dated 2004).

System: anemic rats
Test: hemoglobin-repletion test in anemic rats (relative bioavailability of iron)
Type: in vivo, Sprague-Dawley rats
Settings: high iron diet, 20 mg/kg of diet, after 14 days of feeding
Protocol: Male weanling Sprague-Dawley rats housed individually in stainless steel cages were fed a low-iron diet and de-ionized distilled water ad lib for 24 days. The low-iron diet contained no more than about 3 mg of iron per kg of diet. Following the 24 day depletion period, approximately 200 μl of blood was drawn from the tail vein of each rat for hemoglobin analysis. Anemic rats having hemoglobin values between 30 and 60 g/L were used in the study. The rats were housed individually in cages in a randomized block design.

ferrous sulfate gave a mean hemoglobin response of 31 g/L.
